Data published in publication PMC5630639 (Scientific Reports, 2017).

How the values were obtained:
Type in all cases: cell-based, human
MGC-803 cells = test: CCK-8 proliferation assay, MGC-803; conditions: for IC50: Homo sapiens, MGC-803, 48 h, CCK-8, mean ± SD
Method: (§1) All synthesized β-lactam-azide derivatives were evaluated for their antiproliferative activity against three cancer cell lines (MGC-803, MCF-7, A549) using CCK-8 proliferation assay. The well-known anticancer drug CA-4P was used as a control[36],[37].
(§2) MGC-803 cell line was obtained from the Chinese Academy of Sciences (Shanghai, China). MCF-7 and A549 were from the National Cell Center, China. MGC-803 cells were cultured in DMEM culture medium (DMEM, Biological Industries, Kibbutz Beit Haemek, Israel). A549 and MCF-7 cells were cultured in 1640 medium (1640, Biological Industries, Kibbutz Beit Haemek, Israel). All medium were supplemented with 10% fetal bovine serum, 100 U/ml penicillin (North China Pharmaceutical group Co.), and 100 µg/ml streptomycin (North China Pharmaceutical group Co.). All cells were cultured at 37 °C in a humidified incubator containing 5% CO2.
(§3) Synthesized analogues used in the study were dissolved in 100% cell culture grade DMSO and the final concentration of DMSO as <0.1% for testing on cancer cell lines. Cytotoxicity assays were performed on the human gastric carcinoma cell line MGC-803, the human mammary carcinoma cell line MCF-7, the human lung carcinoma cell line A549. Cells (3500–5000/well) were seeded into 96-well plates in 100 µL of culture medium. The cells were treated in triplicate with a gradient concentration of testing compounds and incubated at 37 °C, 5% CO2 for 48 h. For all cell lines, CCK-8 assay was performed to measure cytotoxic effects. The absorbance was measured using a microplate reader (BioTek Instrument, Inc. Vermont, USA) with a test wavelength of 450 nm. The absorbance levels were corrected against untreated control absorbance values. All experiments were performed in triplicate and SPSS17.0 was used for data analysis to obtain IC50 values.

A549 cells = test: CCK-8 proliferation assay, A549; conditions: Homo sapiens, A549; 48 h, CCK-8, mean ± SD
Method: as §1, §2, §3

MCF-7 cells = test: CCK-8 proliferation assay, MCF-7; conditions: Homo sapiens, MCF7; 48 h, CCK-8, mean ± SD
Method: as §1, §2, §3

Row | Compound | IC50 (MGC-803 cells) [µM] | IC50 (A549 cells) [µM] | IC50 (MCF-7 cells) [µM] | activity loss against the growth of MGC-803 cells (MGC-803 cells; hydrogen atom (18) replaced with methoxy group (19))
1 | COc1ccc(N2C(=O)[C@H](c3ccccc3)[C@H]2c2ccc(N=[N+]=[N-])cc2)cc1OC (relative stereo) [Compound 12, trans-4-(4-azidophenyl)-1-(3,4-dimethoxyphenyl)-3-phenylazetidin-2-one] | > 20 | > 20 | > 20 | 
2 | COc1cccc([C@H]2C(=O)N(c3cc(OC)c(OC)c(OC)c3)[C@@H]2c2ccc(N=[N+]=[N-])cc2)c1 (relative stereo) [Compound 19, trans-4-(4-azidophenyl)-3-(3-methoxyphenyl)-1-(3,4,5-trimethoxyphenyl)azetidin-2-one] | 1.4 ± 0.133 | 18.1 ± 2.31 | 2.88 ± 0.489 | over 8 fold
3 | COc1cccc([C@H]2C(=O)N(c3cc(OC)c(OC)c(OC)c3)[C@@H]2c2cccc(N=[N+]=[N-])c2)c1 (relative stereo) [Compound 23, trans-4-(3-azidophenyl)-3-(3-methoxyphenyl)-1-(3,4,5-trimethoxyphenyl)azetidin-2-one] | 1.4 ± 0.127 | 18.1 ± 1.71 | 2.88 ± 0.494 | 
4 | COc1ccc([C@H]2C(=O)N(c3cc(OC)c(OC)c(OC)c3)[C@@H]2c2ccc(-n3cc(CSC(=S)N4CCCC4)nn3)cc2)cc1 (relative stereo) [Compound 31, (1-(4-(trans-3-(4-methoxyphenyl)-4-oxo-1-(3,4,5-trimethoxyphenyl)azetidin-2-yl)phenyl)-1H-1,2,3-triazol-4-yl)methylpyrrolidine-1-carbodithioate] | > 20 | > 20 | > 20 | 
5 | CCN1CCN(C(=S)SCc2cn(-c3ccc([C@@H]4[C@@H](c5ccccc5)C(=O)N4c4cc(OC)c(OC)c(OC)c4)cc3)nn2)CC1 (relative stereo) [Compound 32, (1-(4-(trans-4-oxo-3-phenyl-1-(3,4,5-trimethoxyphenyl)azetidin-2-yl)phenyl)-1H-1,2,3-triazol-4-yl)methyl-4-ethylpiperazine-1-carbodithioate] | > 20 | > 20 | > 20 | 

More lines, main results first:

Row | IC50 (MGC-803 cells) [µM] | IC50 (A549 cells) [µM] | IC50 (MCF-7 cells) [µM] | Compound | activity loss against the growth of MGC-803 cells (MGC-803 cells; hydrogen atom (18) replaced with methoxy group (19))
6 | > 20 | > 20 | > 20 | COc1cccc([C@H]2C(=O)N(c3ccc(OC)c(OC)c3)[C@@H]2c2ccc(N=[N+]=[N-])cc2)c1 (relative stereo) [Compound 16, trans-4-(4-azidophenyl)-1-(3,4-dimethoxyphenyl)-3-(3-methoxyphenyl)azetidin-2-one] | 
7 | 0.59 ± 0.014 | 3.22 ± 0.349 | 1.07 ± 0.024 | COc1ccc([C@H]2C(=O)N(c3cc(OC)c(OC)c(OC)c3)[C@@H]2c2ccc(N=[N+]=[N-])cc2)cc1 (relative stereo) [Compound 17, trans-4-(4-azidophenyl)-3-(4-methoxyphenyl)-1-(3,4,5-trimethoxyphenyl)azetidin-2-one] | 
8 | > 20 | > 20 | > 20 | COc1ccc([C@H]2C(=O)N(c3ccc(OC)cc3OC)[C@@H]2c2cccc(N=[N+]=[N-])c2)cc1 (relative stereo) [Compound 21, trans-4-(3-azidophenyl)-1-(2,4-dimethoxyphenyl)-3-(4-methoxyphenyl)azetidin-2-one] | 
9 | > 20 | > 20 | > 20 | COc1ccc(N2C(=O)[C@H](c3ccc(F)cc3)[C@H]2c2cccc(N=[N+]=[N-])c2)c(OC)c1 (relative stereo) [Compound 22, trans-4-(3-azidophenyl)-1-(2,4-dimethoxyphenyl)-3-(4-fluorophenyl)azetidin-2-one] | 
10 | 0.84 ± 0.63 | 5.76 ± 0.887 | 4 ± 0.922 | COc1cc(N2C(=O)[C@H](c3ccc(F)cc3)[C@H]2c2cccc(N=[N+]=[N-])c2)cc(OC)c1OC (relative stereo) [Compound 24, trans-4-(3-azidophenyl)-3-(4-fluorophenyl)-1-(3,4,5-trimethoxyphenyl)azetidin-2-one] | 
